pEC50: −log10 of the molar value.
Key:
[1] = system: recombinant NL4-3 virus (nef section replaced with Renilla luciferase gene) in MT-2 cells; assay: HIV cell culture assay (antiviral activity, luciferase readout); type: cell-based; settings: Renilla, NL43, MT-2 cells infected for 4-5 days with recombinant NL4-3 Renilla luciferase virus
Outline: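 MT-2 cells were infected for 4-5 days with reporter virus made by transfecting the recombinant NL4-3 proviral clone into 293T cells, in the presence of serial compound dilutions. Luciferase activity was read with a live-cell substrate. EC50 came from the exponential median effect equation, (Fa)=1/[1+(ED50/drug conc.)m].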

[2] = Compound cytotoxicity, XTT-based colorimetric assay; type: cell-based; settings: human; uninfected MT2 cells, day 4, XTT; read-out: CC50
Outline: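 Uninfected MT2 cells, antiviral-assay protocol without virus; XTT colorimetric readout day 4; CC50 reported.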

Row | SMILES | pEC50 [1] | CC50 at 4 days [2]
1 | Cc1cc(C2CCC(F)(F)CC2)nc2nc([C@H](Cc3cc(F)cc(F)c3)NC(=O)Cn3nc(C4CC4)c4c3C[C@@H]3C[C@H]43)n(-c3ccc(Cl)c4c(NS(C)(=O)=O)nn(CCN5CCO[C@H](C(C)C)C5)c34)c(=O)c12 (atropisomer, axis not shown; (P)) [Example 457, N-[(1S)-1-[(3P)-3-(4-chloro-3-methanesulfonamido-1-{2-[(2R)-2-(propan-2-yl)morpholin-4-yl]ethyl}-1H-indazol-7-yl)-7-(4,4-difluorocyclohexyl)-5-methyl-4-oxo-3H,4H-pyrido[2,3-d]pyrimidin-2-yl]-2-(3,5-difluorophenyl)ethyl]-2-[(2S,4S)-9-cyclopropyl-7,8-diazatricyclo[4.3.0.0^2,^4]nona-1(6),8-dien-7-yl]acetamide] | 11.15 | > 20 nM
2 | Cc1cc(C2(F)CCC(F)(F)CC2)nc2nc([C@H](Cc3cc(F)cc(F)c3)NC(=O)Cn3nc(C4CC4)c4c3C[C@@H]3C[C@H]43)n(-c3ccc(Cl)c4c(NS(C)(=O)=O)nn(CCN5CC(C)(C)OC(C)(C)C5)c34)c(=O)c12 (atropisomer, axis not shown; (P)) [Example 504, N-[(1S)-1-[(3P)-3-{4-chloro-3-methanesulfonamido-1-[2-(2,2,6,6-tetramethylmorpholin-4-yl)ethyl]-1H-indazol-7-yl}-5-methyl-4-oxo-7-(1,4,4-trifluorocyclohexyl)-3H,4H-pyrido[2,3-d]pyrimidin-2-yl]-2-(3,5-difluorophenyl)ethyl]-2-[(2S,4S)-9-cyclopropyl-7,8-diazatricyclo[4.3.0.0^2,^4]nona-1(6),8-dien-7-yl]acetamide] | 10.31 | > 20 nM
3 | Cc1cc(C2CCC(F)(F)CC2)nc2nc([C@H](Cc3cc(F)cc(F)c3)NC(=O)Cn3nc(C(F)F)c4c3C(F)(F)[C@@H]3C[C@H]43)n(-c3ccc(Cl)c4c(NS(C)(=O)=O)nn(CCN5CC(C(F)F)C5)c34)c(=O)c12 (atropisomer, axis not shown; (P)) [Example 268, N-[(1S)-1-[(3P)-3-(4-chloro-1-{2-[3-(difluoromethyl)azetidin-1-yl]ethyl}-3-methanesulfonamido-1H-indazol-7-yl)-7-(4,4-difluorocyclohexyl)-5-methyl-4-oxo-3H,4H-pyrido[2,3-d]pyrimidin-2-yl]-2-(3,5-difluorophenyl)ethyl]-2-[(2S,4R)-9-(difluoromethyl)-5,5-difluoro-7,8-diazatricyclo[4.3.0.0^2,^4]nona-1(6),8-dien-7-yl]acetamide] | 10.82 | > 50 nM
4 | CCc1cc(C2CCC(F)(F)CC2)nc2nc([C@H](Cc3cc(F)cc(F)c3)NC(=O)Cn3nc(C(F)F)c4c3C[C@H]3C[C@@H]43)n(-c3ccc(Cl)c4c(NS(C)(=O)=O)nn(CCCOC)c34)c(=O)c12 (relative stereo) [Example 643, N-[(1S)-1-[(3P)-3-[4-chloro-3-methanesulfonamido-1-(3-methoxypropyl)-1H-indazol-7-yl]-7-(4,4-difluorocyclohexyl)-5-ethyl-4-oxo-3H,4H-pyrido[2,3-d]pyrimidin-2-yl]-2-(3,5-difluorophenyl)ethyl]-2-[(2R*,4R*)-9-(difluoromethyl)-7,8-diazatricyclo[4.3.0.0^2,^4]nona-1(6),8-dien-7-yl]acetamide] | 10.77 | > 50 nM
5 | CC1(C)CN(CCn2nc(NS(C)(=O)=O)c3c(Cl)ccc(-n4c([C@H](Cc5cc(F)cc(F)c5)NC(=O)Cn5nc(C6CC6)c6c5C[C@@H]5C[C@H]65)nc5nc(C6CCC(F)(F)CC6)ccc5c4=O)c32)CC(C)(C)O1 (atropisomer, axis not shown; (P)) [Example 424, N-[(1S)-1-[(3P)-3-{4-chloro-3-methanesulfonamido-1-[2-(2,2,6,6-tetramethylmorpholin-4-yl)ethyl]-1H-indazol-7-yl}-7-(4,4-difluorocyclohexyl)-4-oxo-3H,4H-pyrido[2,3-d]pyrimidin-2-yl]-2-(3,5-difluorophenyl)ethyl]-2-[(2S,4S)-9-cyclopropyl-7,8-diazatricyclo[4.3.0.0^2,^4]nona-1(6),8-dien-7-yl]acetamide] | 10.92 | > 20 nM
6 | Cc1cc(C2CCC(F)(F)CC2)nc2nc([C@H](Cc3cc(F)cc(F)c3)NC(=O)Cn3nc(C(F)F)c4c3C(F)(F)[C@@H]3C[C@H]43)n(-c3ccc(Cl)c4c(NS(C)(=O)=O)nn([C@H](C)CN5CC(C)(C)OC(C)(C)C5)c34)c(=O)c12 (atropisomer, axis not shown; (P)) [Example 733, N-[(1S)-1-[(3P)-3-{4-chloro-3-methanesulfonamido-1-[(2R)-1-(2,2,6,6-tetramethylmorpholin-4-yl)propan-2-yl]-1H-indazol-7-yl}-7-(4,4-difluorocyclohexyl)-5-methyl-4-oxo-3H,4H-pyrido[2,3-d]pyrimidin-2-yl]-2-(3,5-difluorophenyl)ethyl]-2-[(2S,4R)-9-(difluoromethyl)-5,5-difluoro-7,8-diazatricyclo[4.3.0.0^2,^4]nona-1(6),8-dien-7-yl]acetamide] | 10.43 | > 20 nM
7 | Cc1cc(C2CCC(F)(F)CC2)nc2nc([C@H](Cc3cc(F)cc(F)c3)NC(=O)Cn3nc(C4CC4)c4c3C[C@@H]3C[C@H]43)n(-c3ccc(Cl)c4c(NS(C)(=O)=O)nn(CCN5CCCCC5)c34)c(=O)c12 (atropisomer, axis not shown; (P)) [Example 276, N-[(1S)-1-[(3P)-3-{4-chloro-3-methanesulfonamido-1-[2-(piperidin-1-yl)ethyl]-1H-indazol-7-yl}-7-(4,4-difluorocyclohexyl)-5-methyl-4-oxo-3H,4H-pyrido[2,3-d]pyrimidin-2-yl]-2-(3,5-difluorophenyl)ethyl]-2-[(2S,4S)-9-cyclopropyl-7,8-diazatricyclo[4.3.0.0^2,^4]nona-1(6),8-dien-7-yl]acetamide] | 10.80 | > 50 nM
8 | CC(C)[C@@H]1CN(CCn2nc(NS(C)(=O)=O)c3c(Cl)ccc(-n4c([C@H](Cc5cc(F)cc(F)c5)NC(=O)Cn5nc(C6CC6)c6c5C[C@@H]5C[C@H]65)nc5nc(C6CCC(F)(F)CC6)ccc5c4=O)c32)CCO1 (atropisomer, axis not shown; (P)) [Example 435, N-[(1S)-1-[(3P)-3-(4-chloro-3-methanesulfonamido-1-{2-[(2R)-2-(propan-2-yl)morpholin-4-yl]ethyl}-1H-indazol-7-yl)-7-(4,4-difluorocyclohexyl)-4-oxo-3H,4H-pyrido[2,3-d]pyrimidin-2-yl]-2-(3,5-difluorophenyl)ethyl]-2-[(2S,4S)-9-cyclopropyl-7,8-diazatricyclo[4.3.0.0^2,^4]nona-1(6),8-dien-7-yl]acetamide] | 11.05 | > 20 nM
9 | Cc1cc(C2CCC(F)(F)CC2)nc2nc([C@H](Cc3cc(F)cc(F)c3)NC(=O)Cn3nc(C4CC4)c4c3C[C@@H]3C[C@H]43)n(-c3ccc(Cl)c4c(NS(C)(=O)=O)nn(CCN5CCOC(C)(C)C5)c34)c(=O)c12 (atropisomer, axis not shown; (P)) [Example 480, N-[(1S)-1-[(3P)-3-{4-chloro-1-[2-(2,2-dimethylmorpholin-4-yl)ethyl]-3-methanesulfonamido-1H-indazol-7-yl}-7-(4,4-difluorocyclohexyl)-5-methyl-4-oxo-3H,4H-pyrido[2,3-d]pyrimidin-2-yl]-2-(3,5-difluorophenyl)ethyl]-2-[(2S,4S)-9-cyclopropyl-7,8-diazatricyclo[4.3.0.0^2,^4]nona-1(6),8-dien-7-yl]acetamide] | 11.30 | > 20 nM
10 | Cc1cc(C2CCC(F)(F)CC2)nc2nc([C@H](Cc3cc(F)cc(F)c3)NC(=O)Cn3nc(C(F)F)c4c3C(F)(F)[C@@H]3C[C@H]43)n(-c3ccc(Cl)c4c(NS(C)(=O)=O)nn(CCN5CCCC(F)(F)CC5)c34)c(=O)c12 (atropisomer, axis not shown; (P)) [Example 15, N-[(1S)-1-[(3P)-3-{4-chloro-1-[2-(4,4-difluoroazepan-1-yl)ethyl]-3-methanesulfonamido-1H-indazol-7-yl}-7-(4,4-difluorocyclohexyl)-5-methyl-4-oxo-3H,4H-pyrido[2,3-d]pyrimidin-2-yl]-2-(3,5-difluorophenyl)ethyl]-2-[(2S,4R)-9-(difluoromethyl)-5,5-difluoro-7,8-diazatricyclo[4.3.0.0^2,^4]nona-1(6),8-dien-7-yl]acetamide] | 11.00 | > 50 nM
11 | Cc1cc(C2CCC(F)(F)CC2)nc2nc([C@H](Cc3cc(F)cc(F)c3)NC(=O)Cn3nc(C4CC4)c4c3C[C@@H]3C[C@H]43)n(-c3ccc(Cl)c4c(NS(C)(=O)=O)nn(CCN5C[C@@H]6C[C@H]5CC6(F)F)c34)c(=O)c12 (atropisomer, axis not shown; (P)) [Example 311, N-[(1S)-1-[(3P)-3-(4-chloro-1-{2-[(1S,4S)-5,5-difluoro-2-azabicyclo[2.2.1]heptan-2-yl]ethyl}-3-methanesulfonamido-1H-indazol-7-yl)-7-(4,4-difluorocyclohexyl)-5-methyl-4-oxo-3H,4H-pyrido[2,3-d]pyrimidin-2-yl]-2-(3,5-difluorophenyl)ethyl]-2-[(2S,4S)-9-cyclopropyl-7,8-diazatricyclo[4.3.0.0^2,^4]nona-1(6),8-dien-7-yl]acetamide] | 10.89 | > 50 nM

Source: patent US12594276B2, “Inhibitors of human immunodeficiency virus replication” (ViiV Healthcare UK (No.5) Limited, priority 2024, dated 2026)
